The conditions of series [1]: sheep; intravenous 99Mo labeled TM; cited from earlier work.
Series [2] relates to Aβ40 and Aβ42. As to the kind of experiment: Aβ40 and Aβ42 ELISA in brain homogenates of Tg2576 mice. The following applies: Ex 8, TM 0.7 mg/mouse daily from 9 to 15 months of age. The format is in vivo. How it is done: A study is carried out in an mouse model of Alzheimer's disease. The mouse model is the Tg2576 mouse model, as described above in the Description of the Invention and in further detail in Gau et al., 2002 (J Gau et al., Amer. J. Pathology, 160(2):731-738 [2002]; J Q Trojanowski, Amer. J. Pathology, 160(2):409-411 [2002]). These mice begin developing amyloid plaques at about 9 months of age and plaques are well developed by 15 months. The transgenic mice also develop progressive age-dependent cognitive and behavioral abnormalities described in the background.
Forty female Tg2576 mice, aged 3 months, are purchased from Tagonic Inc, and grown until 9 months of age, at which time they are divided into two groups of 20. One group begins treatment with TM at 9 months of age, and are treated until sacrifice at age 15 months. […] Cp is determined by an oxidase method. […] The weight of the mice is determined weekly. […]
After 6 months of treatment with water or TM, all mice in both groups are sacrificed painlessly, and the brains removed and divided sagitally. […] Analysis of amyloid plaque load in mouse brains is determined by light-microscopic semi-quantitative analysis of brain sections. Subtle effects of treatment are measured by a more rigorous quantitative analysis of amyloid plaques in brain sections to detect a significant difference. […]

A short description of series [3]: Body weight and hematocrit in the bleomycin mouse model. The following applies: for Weight / Hematocrit: sacrifice day 21; for protection against weight loss from bleomycin: Ex 1 Exp 2; for mean hematocrit: day 21. Format: in vivo. As to the method: Mice. Female CBA/J mice at 8-10 weeks of age were from the Jackson Laboratories (Bar Harbor, Me.). These mice weighed an average of 21.4 g at the start of experiments, with a standard deviation of 1.7 g.
Bleomycin treatment. This was undertaken on day 0 by endotracheal instillation through the oral cavity after exposure of the airway by pulling the tongue. Each mouse received 0.001 units of bleomycin (Bristol-Myers, Evansville, Ind.)/gm body weight in 30 μl of sterile saline, while control mice received an equal volume of sterile saline only.
TM treatment experiments. TM was given in 0.25 ml of water by intragastric gavage once daily, in the doses and times indicated in the various studies as described below.
There were four experimental groups of five to seven mice each. Group 1 received bleomycin, group 2 was a saline control, group 3 received bleomycin and TM therapy, and group 4 was a TM therapy control. The TM was given in a dose of 0.7 mg/mouse/day beginning 7 days prior to bleomycin treatment. During days 9 to 11 after bleomycin, the TM-treated mice received 1.2 mg of TM daily, to ensure adequate lowering of copper levels, and then received 0.7 mg daily for the duration of the study. The mice were sacrificed 21 days after bleomycin treatment.
In this experiment, the effect of TM at different doses after bleomycin administration was examined. Experimental groups of four bleomycin-treated and two to four control (non-bleomycin treated) mice were given varying doses of TM. Initially, All TM-treated mice received identical loading doses of 1.2 mg/mouse/day for 3 days (minus 5 to minus 3 days) prior to bleomycin administration. From that point on, groups of mice were given 0.3, 0.5, 0.7, or 0.9 mg of TM/mouse/day until sacrifice at day 21 after bleomycin treatment. A group of four bleomycin treated and a group of four non-bleomycin treated mice received no TM.
Three experiments were carried out. Experiment 1 comprised four groups of three mice each. Group 1 received bleomycin only, group 2 received bleomycin and TM therapy, group 3 received saline in the trachea rather than bleomycin, and group 4 received TM therapy only. The mice in groups 2 and 4 each received 1.2 mg of TM per day for four days prior to bleomycin, and then were given 0.9 mg TM per day until sacrifice at seven days after bleomycin.
Experiment 2 comprised four groups of five mice each. The four groups were assigned as in experiment 1 to bleomycin, bleomycin and TM, saline rather than bleomycin, and TM only. Groups 2 and 4 were started on TM five days after bleomycin treatment at a dose of 1.2 mg per day for four days, and then 0.9 mg per day until sacrifice at day 21.

The subject of series [4] is carbon tetrachloride (CT) mouse model. Briefly: Liver hydroxyproline and histology in the CT mouse model. The format is in vivo. The following applies: Ex 6. As to the method: The carbon tetrachloride (CT) mouse model produces much more liver fibrosis (cirrhosis) than the Con A model. In this model carbon tetrachloride is injected intraperitoneally twice weekly, and after 12 weeks, a well-established cirrhosis should be present. This can be evaluated histologically, and can be quantitated by measuring liver hydroxyproline, a major amino acid in collagen. The TM was started in TM treated animals at the beginning of week 5 and the animals were sacrificed at week 12.

For the compound `[SH-].[SH-].[S]=[Mo]=[S]` [TM, tetrathiomolybdate], in series [1], the excreted in feces is listed as 5%. In series [1], the excreted in urine result was “over 90%”. Further, the “half-time of slow disappearance from plasma” value in series [1] is “about 40 h”. Besides, the “mean reduction in Aβ40 and Aβ42 levels in brain homogenates” value in series [2] is on record as “up to 50%”. Moreover, the Weight in series [3] (Ex 1 Exp 1, Bleomycin/TM group, TM 0.7 mg/mouse/day gavage from 7 days before bleomycin) was 21.2 ± 0.8 g; in series [3] (Ex 1 Exp 1, TM only group (no bleomycin), 0.7 mg/mouse/day) it was 20.4 ± 1.0 g. The Hematocrit came to 39.7 ± 2.6 in series [3] (Ex 1 Exp 1, Bleomycin/TM group) and 44.1 ± 1.0 in series [3] (Ex 1 Exp 1, TM only group). Moreover, the “effect of TM alone on weight” value in series [3] (Ex 1 Exp 1, TM alone (group 4)) was “tended to produce some weight loss”. The “protection against bleomycin induced weight loss” value in series [3] (Ex 1 Exp 1, bleomycin/TM group) is reported as “protected against some of the bleomycin induced weight loss”. The “protection against weight loss from bleomycin” value in series [3] (0.3 mg TM dose) is “only slightly protective”; in series [3] (0.5 mg TM dose) it was “intermediately protective”; in series [3] (0.7 mg TM dose), “intermediately protective”; in series [3] (0.9 mg TM dose), “fully protective”. The “mean weight in the bleomycin/TM group” value in series [3] (Ex 2 Exp 1, sacrifice day 7) is given as “almost exactly the same as the saline control group”. Further, the mean hematocrit in series [3] (Ex 2 Exp 2, TM group) was 43.8%; in series [3] (Ex 2 Exp 2, bleomycin/TM group) it was 44.3%. Further, the “mean weight at the time of sacrifice” value in series [3] (Ex 2 Exp 2, bleomycin/TM group, TM started 5 days after bleomycin) is reported as 19.6 g. For the same compound, the liver histology result in series [4] (CT/TM treated liver) was “essentially normal”. Further, in series [4] (CT/TM, after week 12), the “liver fibrosis as evaluated by hydroxyproline” value is listed as “blocks all fibrosis”.

These data come from patent US7416741B2, “Copper lowering treatment of inflammatory and fibrotic diseases” (The Regents of the University of Michigan, priority 2002, dated 2008).
